38 compounds from ChEMBL document CHEMBL1149422, “Expedited SAR study of high-affinity ligands to the alpha(2)delta subunit of voltage-gated calcium channels: Generation of a focused library using a solution-phase Sn2Ar coupling methodology” (Bioorg Med Chem Lett, 2006) can be followed below.

Each structure is given as a SMILES string.

The target of the experiment is Voltage-dependent calcium channel subunit alpha-2/delta-1 (Homo sapiens, UniProt P54289). As to the kind of experiment: [3H]Gabapentin binding in human A710 membrane expressing alpha-2delta subunit of calcium channel. Format: cell membranes.
Voltage-dependent calcium channel subunit alpha-2/delta-1, sequence (P54289 25-956 limits assumed): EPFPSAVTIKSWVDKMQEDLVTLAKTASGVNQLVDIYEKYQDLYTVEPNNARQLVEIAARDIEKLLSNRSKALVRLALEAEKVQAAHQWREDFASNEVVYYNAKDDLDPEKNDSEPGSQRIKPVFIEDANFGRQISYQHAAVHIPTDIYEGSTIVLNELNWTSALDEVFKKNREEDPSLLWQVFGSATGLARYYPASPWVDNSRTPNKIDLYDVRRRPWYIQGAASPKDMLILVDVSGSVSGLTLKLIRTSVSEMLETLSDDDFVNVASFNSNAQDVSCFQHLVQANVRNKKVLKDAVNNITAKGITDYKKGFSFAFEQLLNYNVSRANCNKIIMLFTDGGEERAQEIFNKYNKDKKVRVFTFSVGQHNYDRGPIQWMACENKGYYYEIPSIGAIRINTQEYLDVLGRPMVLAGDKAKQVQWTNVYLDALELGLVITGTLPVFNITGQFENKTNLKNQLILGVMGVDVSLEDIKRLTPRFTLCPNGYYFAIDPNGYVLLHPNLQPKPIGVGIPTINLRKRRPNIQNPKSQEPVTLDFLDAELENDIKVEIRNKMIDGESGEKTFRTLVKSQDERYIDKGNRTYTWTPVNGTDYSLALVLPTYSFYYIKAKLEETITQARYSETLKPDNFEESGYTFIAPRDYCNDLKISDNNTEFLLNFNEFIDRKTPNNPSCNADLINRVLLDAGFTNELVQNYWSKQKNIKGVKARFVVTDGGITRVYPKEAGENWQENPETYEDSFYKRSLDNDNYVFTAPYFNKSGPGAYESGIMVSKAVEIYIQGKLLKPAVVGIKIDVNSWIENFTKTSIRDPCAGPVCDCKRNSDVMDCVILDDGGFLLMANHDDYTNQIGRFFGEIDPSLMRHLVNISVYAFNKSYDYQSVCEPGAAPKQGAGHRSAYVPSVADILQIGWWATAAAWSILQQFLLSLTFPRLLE
Voltage-dependent calcium channel subunit alpha-2/delta-1, sequence (P54289 957-1103 limits assumed): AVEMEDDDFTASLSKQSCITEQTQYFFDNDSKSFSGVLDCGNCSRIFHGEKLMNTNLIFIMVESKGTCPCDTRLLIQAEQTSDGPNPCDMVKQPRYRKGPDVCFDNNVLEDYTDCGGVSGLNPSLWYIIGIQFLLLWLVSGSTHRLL
What is called IC50 is the concentration that gives 50% inhibition. With `CCOc1ccc(-n2c(C)c3c(C)nnc(NC4CCCc5ccccc54)c3c2C)cc1` (stereo not drawn), the IC50 is 161 nM.

In the case of `CCOc1ccc(-n2c(C)c3c(C)nnc(N4CCN(C)CC4)c3c2C)cc1`, the IC50 turned out to be 2930 nM.

Turning to `CCOc1ccc(-n2c(C)c3c(C)nnc(NCc4cnn(C)c4)c3c2C)cc1`, the IC50 is 69 nM.

As to `CCOc1ccc(-n2c(C)c3c(C)nnc(NCC(C)CC)c3c2C)cc1` (stereo not drawn), the IC50 was 84 nM.

Regarding `CCOc1ccc(-n2c(C)c3c(C)nnc(NCc4cccc(OC)c4)c3c2C)cc1`, the 50% inhibitory concentration (IC50) turned out to be 239 nM.

Consider `CCOc1ccc(-n2c(C)c3c(C)nnc(NCc4ccccc4OC)c3c2C)cc1`, for which the IC50 is 76 nM.

`CCOc1ccc(-n2c(C)c3c(C)nnc(N4CCC(NC(C)=O)C4)c3c2C)cc1` (stereo not drawn): the IC50 worked out at 144 nM.

With `CCOc1ccc(-n2c(C)c3c(C)nnc(NCC4CCCO4)c3c2C)cc1` (stereo not drawn), the IC50 was determined as 50 nM.

Regarding `CCOc1ccc(-n2c(C)c3c(C)nnc(N4CC(C)OC(C)C4)c3c2C)cc1` (stereo not drawn), the IC50 was greater than 3000 nM.

With `CCOc1ccc(-n2c(C)c3c(C)nnc(NCc4n[nH]cc4C4CC4)c3c2C)cc1`, the IC50 was determined as 68 nM.

As to `CCOc1ccc(-n2c(C)c3c(C)nnc(N4CCC(c5ccccc5)(c5ccccc5)C4)c3c2C)cc1`, the IC50 is 153 nM.

Turning to `CCOc1ccc(-n2c(C)c3c(C)nnc(N4CCCC4)c3c2C)cc1`, the IC50 is 180 nM.

In the case of `CCOc1ccc(-n2c(C)c3c(C)nnc(N4C[C@@H]5CCc6ccccc6[C@@H]5C4)c3c2C)cc1`, the IC50 was found to be 84 nM.

`CCOc1ccc(-n2c(C)c3c(C)nnc(Nc4ccc5c(c4)OCO5)c3c2C)cc1`: the IC50 was 207 nM.

With `CCOc1ccc(-n2c(C)c3c(C)nnc(N4CC(C)CC(C)C4)c3c2C)cc1` (stereo not drawn), the concentration for half-maximal inhibition (IC50) worked out at 702 nM.

Regarding `CCOc1ccc(-n2c(C)c3c(C)nnc(NCc4ccncc4)c3c2C)cc1`, the IC50 came to 84 nM.

With `CCOc1ccc(-n2c(C)c3c(C)nnc(NC(C)C)c3c2C)cc1`, the IC50 was found to be 67 nM.

As for `CCOc1ccc(-n2c(C)c3c(C)nnc(NCc4ccc(Cl)cc4)c3c2C)cc1`, the IC50 was 65 nM.

Regarding `CCOc1ccc(-n2c(C)c3c(C)nnc(NCc4cnn(CC)c4)c3c2C)cc1`, the IC50 was 64 nM.

For `CCOc1ccc(-n2c(C)c3c(C)nnc(Nc4ccc5[nH]nnc5c4)c3c2C)cc1`, the IC50 came out at 346 nM.

As to `CCOc1ccc(-n2c(C)c3c(C)nnc(Nc4ccc5c(c4)CCC5)c3c2C)cc1`, the IC50 came out at 199 nM.

Turning to `CCOc1ccc(-n2c(C)c3c(C)nnc(NCc4ccc5c(n4)NCCC5)c3c2C)cc1`, the IC50 amounted to 32 nM.

Consider `CCOc1ccc(-n2c(C)c3c(C)nnc(NCc4cccc5cccnc45)c3c2C)cc1`, for which the IC50 was found to be 63 nM.

As for `CCOc1ccc(-n2c(C)c3c(C)nnc(Nc4ccc5[nH]ccc5c4)c3c2C)cc1`, the IC50 came to 30 nM.

As for `CCOc1ccc(-n2c(C)c3c(C)nnc(NCc4ccccn4)c3c2C)cc1`, the concentration for half-maximal inhibition (IC50) is greater than 3000 nM.

Consider `CCOc1ccc(-n2c(C)c3c(C)nnc(N4CCC5=C(C4)NC4C=CC=CC54)c3c2C)cc1` (stereo not drawn), for which the IC50 came out at 135 nM.

With `CCOc1ccc(-n2c(C)c3c(C)nnc(N4CCOCC4)c3c2C)cc1`, the IC50 stood at 1690 nM.

For `CCOc1ccc(-n2c(C)c3c(C)nnc(NCc4cccc(Cl)c4)c3c2C)cc1`, the IC50 is 37 nM.

For `CCOc1ccc(-n2c(C)c3c(C)nnc(NCc4ccc(F)cc4)c3c2C)cc1`, the IC50 turned out to be 94 nM.

With `CCOc1ccc(-n2c(C)c3c(C)nnc(NCc4ccc(OC)cc4)c3c2C)cc1`, the IC50 was 702 nM.

On to `CCOc1ccc(-n2c(C)c3c(C)nnc(N4CCC(C)CC4)c3c2C)cc1`, for which the IC50 was determined as 370 nM.

Regarding `CCOc1ccc(-n2c(C)c3c(C)nnc(NC4CCc5ccccc54)c3c2C)cc1` (stereo not drawn), the IC50 is 54 nM.

In the case of `CCOc1ccc(-n2c(C)c3c(C)nnc(NCc4cccnc4)c3c2C)cc1`, the IC50 was found to be 119 nM.

Take `CCOc1ccc(-n2c(C)c3c(C)nnc(NCc4cccc5[nH]ccc45)c3c2C)cc1`: the IC50 was determined as 70 nM.

Regarding `CCCCNc1nnc(C)c2c(C)n(-c3ccc(OCC)cc3)c(C)c12`, the IC50 was 61 nM.

For `CCOc1ccc(-n2c(C)c3c(C)nnc(Nc4ccc5[nH]ncc5c4)c3c2C)cc1`, the 50% inhibitory concentration (IC50) worked out at 36 nM.

Regarding `CCOc1ccc(-n2c(C)c3c(C)nnc(NC(C)CC(C)C)c3c2C)cc1` (stereo not drawn), the IC50 amounted to 296 nM.

As to `CCOc1ccc(-n2c(C)c3c(C)nnc(NCc4cccc(F)c4)c3c2C)cc1`, the IC50 was 18 nM.
